Several values for one entry are separate records, joined by “and”; a condition that tells them apart may be missing. Equal entries are not always repeated. Toxic doses and inconclusive results are not listed.

The subject of this experiment is AKR/Lw mice, AKR lymphoma ip, median survival T/C. The experiment is described as follows: NCI In Vivo Anticancer Drug Screen. Data for tumor model Lymphoma AKR (Transplanted) (intraperitoneal) in AKR/Lw mice. The settings on record: endpoint: median survival time, higher = longer survival. How it is done: The antitumor activity of compounds was measured in mice bearing transplantable tumors. Survival or tumor size were measured and the results are expressed as the measurement made in the treated group (T) divided by the measurement made in the vehicle treated control group (C). The tumor model used in this assay is Lymphoma AKR (Transplanted) (intraperitoneal) in AKR/Lw mice

Setting [1] is: dose: 100.0 mg/kg/injection, schedule: Q01DX001 (ip), vehicle: Klucel (hydroxypropylcellulose) (HPC).
The mark [2] stands for this setting: dose: 200.0 mg/kg/injection, schedule: Q01DX001 (ip), vehicle: Klucel (hydroxypropylcellulose) (HPC).
[3] abbreviates: dose: 400.0 mg/kg/injection, schedule: Q01DX001 (ip), vehicle: Klucel (hydroxypropylcellulose) (HPC).
Where [4] appears, read: dose: 100.0 mg/kg/injection, schedule: Q01DX001 (ip), vehicle: saline.
[5] abbreviates: dose: 200.0 mg/kg/injection, schedule: Q01DX001 (ip), vehicle: saline.
[6] abbreviates: dose: 400.0 mg/kg/injection, schedule: Q01DX001 (ip), vehicle: saline.
Where [7] appears, read: dose: 50.0 mg/kg/injection, schedule: Q01DX001 (ip), vehicle: saline.

With `COc1ccc(Br)cc1/C=N\NS(=O)(=O)c1ccc(C)cc1`, the T/C runs as follows: under setting [1], 106 % of control; (dose: 100.0 mg/kg/injection, schedule: Q04DX003 (ip), vehicle: Klucel (hydroxypropylcellulose) (HPC)) 106 % of control; under setting [2], 100 % of control; (dose: 200.0 mg/kg/injection, schedule: Q04DX003 (ip), vehicle: Klucel (hydroxypropylcellulose) (HPC)) 86 % of control; under setting [3], 100 % of control; (dose: 400.0 mg/kg/injection, schedule: Q04DX003 (ip), vehicle: Klucel (hydroxypropylcellulose) (HPC)) 86 % of control.
As to `NCCCC(=O)O`, the T/C reads like this: under setting [4], 93 % of control; under setting [5], 95 % of control; under setting [6], 95 % of control.
`COc1ccc2c3c(ccc2c1)C(=O)C(C)(C#N)CC3` (stereo not given): the T/C (dose: 37.5 mg/kg/injection, schedule: Q01DX001 (ip), vehicle: Klucel (hydroxypropylcellulose) (HPC)) is 92 % of control; the T/C (dose: 75.0 mg/kg/injection, schedule: Q01DX001 (ip), vehicle: Klucel (hydroxypropylcellulose) (HPC)) is 94 % of control; the T/C (dose: 150.0 mg/kg/injection, schedule: Q01DX001 (ip), vehicle: Klucel (hydroxypropylcellulose) (HPC)) is 100 % of control; the T/C (dose: 300.0 mg/kg/injection, schedule: Q01DX001 (ip), vehicle: Klucel (hydroxypropylcellulose) (HPC)) was 107 % of control.
As to `Cc1c(C(=O)O)cc2n(c1=O)Cc1cc3ccccc3nc1-2`, the T/C is 102 % of control under setting [7]; 93 % of control (dose: 50.0 mg/kg/injection, schedule: Q04DX003 (ip), vehicle: saline with Tween-80); 100 % of control under setting [4]; 100 % of control (dose: 100.0 mg/kg/injection, schedule: Q04DX003 (ip), vehicle: saline with Tween-80); 94 % of control under setting [5].
`C[N+]1(C)Cc2ccccc2-c2ccccc2C1`: the T/C under setting [7] was 94 % of control.
Turning to `O=C1N[C@@H]([C@H]2CC[C@H](Cl)CN2)C(=O)N[C@H]1[C@H]1CC[C@H](Cl)CN1`, the T/C (dose: 0.5 mg/kg/injection, schedule: Q01DX001 (ip), vehicle: water) is 113 % of control; the T/C (dose: 1.0 mg/kg/injection, schedule: Q01DX001 (ip), vehicle: water) is 111 % of control; the T/C (dose: 2.0 mg/kg/injection, schedule: Q01DX001 (ip), vehicle: saline) is 102 % of control and 105 % of control; the T/C (dose: 2.0 mg/kg/injection, schedule: Q01DX001 (ip), vehicle: water) is 114 % of control and 119 % of control; the T/C (dose: 2.0 mg/kg/injection, schedule: Q01DX009 (ip), vehicle: water) is 178 % of control; the T/C (dose: 4.0 mg/kg/injection, schedule: Q01DX001 (ip), vehicle: saline) was 102 % of control. The T/C (dose: 4.0 mg/kg/injection, schedule: Q01DX001 (ip), vehicle: water) was 117 % of control; the T/C (dose: 8.0 mg/kg/injection, schedule: Q01DX001 (ip), vehicle: saline) was 122 % of control; the T/C (dose: 8.0 mg/kg/injection, schedule: Q01DX001 (ip), vehicle: water) was 171 % of control and 200 % of control; the T/C (dose: 16.0 mg/kg/injection, schedule: Q01DX001 (ip), vehicle: saline) is 108 % of control; the T/C (dose: 16.0 mg/kg/injection, schedule: Q01DX001 (ip), vehicle: water) is 207 % of control.
On to `Nc1nc(=S)c2[nH]cnc2[nH]1`, for which the T/C was 96 % of control (dose: 0.12 mg/kg/injection, schedule: Q01DX009 (ip), vehicle: saline); 96 % of control (dose: 0.25 mg/kg/injection, schedule: Q01DX009 (ip), vehicle: saline); 110 % of control (dose: 0.5 mg/kg/injection, schedule: Q01DX009 (ip), vehicle: saline); 110 % of control (dose: 0.5 mg/kg/injection, schedule: Q04DX003 (ip), vehicle: saline); 93 % of control and 100 % of control (dose: 1.0 mg/kg/injection, schedule: Q01DX009 (ip), vehicle: saline); 120 % of control (dose: 1.0 mg/kg/injection, schedule: Q04DX003 (ip), vehicle: saline). Also, the T/C is, setting by setting: (dose: 2.0 mg/kg/injection, schedule: Q01DX009 (ip), vehicle: saline) 87 % of control; (dose: 2.0 mg/kg/injection, schedule: Q04DX003 (ip), vehicle: saline) 116 % of control; (dose: 4.0 mg/kg/injection, schedule: Q04DX003 (ip), vehicle: saline) 120 % of control; (dose: 8.0 mg/kg/injection, schedule: Q04DX003 (ip), vehicle: saline) 87 % of control; (dose: 16.0 mg/kg/injection, schedule: Q04DX003 (ip), vehicle: saline) 118 % of control; (dose: 6.2 micrograms/kg/injection, schedule: Q03HX032 (ip), vehicle: saline) 98 % of control. Moreover, the T/C reads like this: (dose: 12.5 micrograms/kg/injection, schedule: Q03HX032 (ip), vehicle: saline) 98 % of control; (dose: 25.0 micrograms/kg/injection, schedule: Q03HX032 (ip), vehicle: saline) 101 % of control; (dose: 50.0 micrograms/kg/injection, schedule: Q03HX032 (ip), vehicle: saline) 114 % of control; (dose: 100.0 micrograms/kg/injection, schedule: Q03HX032 (ip), vehicle: saline) 118 % of control.
As to `COC(=O)C1CC2C(Cl)=C(Cl)C1(Cl)C2(Cl)Cl` (stereo not given), the T/C by setting is: (dose: 25.0 mg/kg/injection, schedule: Q04DX003 (ip), vehicle: saline) 108 % of control; (dose: 50.0 mg/kg/injection, schedule: Q04DX003 (ip), vehicle: saline) 100 % of control; under setting [4], 96 % of control; (dose: 100.0 mg/kg/injection, schedule: Q04DX003 (ip), vehicle: saline) 95 % of control; under setting [5], 105 % of control; under setting [6], 103 % of control.
With `CN(C)S(=O)(=O)Nc1cc(Cl)c(NS(=O)(=O)N(C)C)cc1Cl`, the T/C was 93 % of control under setting [1], 106 % of control under setting [2] and 100 % of control under setting [3].

The values are drawn from PubChem BioAssay AID190 (DTP/NCI, 2004).
